From US12616750B2, “Combination therapy utilizing DNA alkylating agents and ATR inhibitors” (Merck Patent GmbH, priority 2018, dated 2026)
Several values for one entry are separate records, joined by “and”; a condition that tells them apart may be missing. Equal entries are not always repeated. Where two headings read alike, the source gives them in different places. Where a SMILES comes first, the peptide text is derived from it. [ ]: non-standard residue; d: D form. The star is where a group is joined. Dolaproine = CO[C@@H]([C@@H]1CCCN1)[C@@H](C)C(=O)O; Dil = CC[C@H](C)[C@H](NC)[C@@H](CC(=O)O)OC; X1 = C[C@@H](N*)[C@@H](O)c1ccccc1; NMeV = CN[C@H](C(=O)O)C(C)C

Columns and labels:
[1] = system: MDA-MB-468 cells; experiment: Dose-matrix combination assay (synergy score, Loewe model); type: cell-based; conditions: combination with DUBA; MDA-MB-468, 6 d; S ± SD; cutoff ±1
Procedure: (§1) Dose-matrix combination assays were performed as described above, but performed in opague 384-well plates (2k viable cells/well). Compounds were added using Tecan D300e liquid. Protein solutions were supplemented with 0.3% Tween-20 (final) and diluted to 1 μM. All wells were normalized to the maximum amount of DMSO (maximum 0.4%) or Tween-20 added. […] Luminescence values were normalized to luminescence of non-treated cells and dose-response was fitted using Smart Fit. Synergy scores were calculated using LOEWE synergy model.
(§2) The screening of synergistic drug combinations can be accomplished by performing a dose-matrix assay. Therefore, two drugs are serial diluted and mixed at every dose level, yielding a dose-matrix. The drug combination can be additive if the effects of the combination are identical to the added effects of the single agents. However, the effects of the combination might also be stronger than the activity of the single agents. This scenario is termed synergy, whereas weaker combination effects compared to the single agents are termed antagonism. A dose-matrix assay is depicted schematically in FIG. 2 which illustrates the outcomes of a dose-matrix assay: additivity, antagonism and synergy.
(§3) The screening was conducted by serial diluting the duocarmycin derivative DUBA (10) and the DDR inhibitors. […] DUBA was combined in a dose-matrix assay with hycanthone. The cell viability was measured after 6 d of treatment using the CellTiter-Glo assay kit. The signals of the cell viability assay were normalized to untreated cells and fitted. […] By subtracting the modeled data from the fitted data, an excess matrix was generated. The excess matrix can be considered as a visualization of the differences between model and actual data which also highlights spots of either high synergy or antagonism. The quantification of the combination effects, however, was performed by calculating synergy scores. […] Besides synergy score, the potency of the drugs in monotherapy was obtained from these experiments. […] The potency was obtained from this dose-response curve.
(§4) The scattering of S was determined in a sham control experiment to define a cutoff for classifying a combination as truly synergistic or antagonistic. Thus seven different compounds were combined with itself on four different cell lines and the three-σ confidence interval was calculated around the mean of the measurement. […] For the sake of convenience, the cutoff was set to a value of ±1.
(§5) Synergy scores (S) were obtained from the combination experiments that indicated additivity […] if model and actual response were equal. […] The magnitude of the score determined the extent of the combination effects.

[2] = system: HCC-1954 cells; experiment: as above; type: cell-based
Procedure: as §1, §2, §3, §4, §5

[3] = system: HCC-1954 cells; experiment: Cytotoxicity (cell viability, CellTiter-Glo, 6 d); type: cell-based; conditions: Homo sapiens, HCC1954, HCC-1954
Procedure: as §1
After 6 d of treatment, CellTiter-Glo luminescent assay was performed and the luminescence was read on Envision Reader. The results were analyzed using GeneData Screener as described before.

[4] = system: NCI-N87 xenografts; experiment: Xenograft experiment, therapeutic efficacy; conditions: single agent: αHER2-6 1.0 mg/kg i.v. single dose; ATRi 50 mg/kg per oral once daily 14 d
Procedure: Female H2d Rag2 mice, 6-8 weeks old, were obtained from Taconic Biosciences, LLC. A xenograft was established by harvesting NCI-N87 cells from cell culture, mixing the cells 1:1 with Matrigel and injecting 2.5×10^6 cells subcutaneously into the flank of the mice. The tumor volume was assessed twice weekly by length measurements in two dimensions using calipers. The volume was calculated following eq. 3 where the length L is the longest tumor length and W is the shortest tumor length.
After an initial tumor growth phase, mice were randomized and assigned to treatment groups comprising 10 animals. The initial tumor volume amounted to approximately 100 mm^3 when treatment started. Vehicle treated mice obtained a solution of 0.5% Methocel, 0.25% Tween-20 in water. […] Mice were weighted twice weekly to assess the body-weight during the treatment period. The criteria to terminate the study for single animals were skin ulcerations, tumor length exceeding 15 mm or tumor exceeding 10% of the body weight. In addition, body weight loss was a criterium for termination if body weight loss exceeded 20% accompanied with a haggard appearance, body weight loss exceeded 20% on three successive days or if body weight loss exceeded 25% of the adjusted body weight.

[5] = system: MDA-MB-453 cells; experiment: Dose-matrix combination assay (synergy score, Loewe model); type: cell-based
Procedure: (§6) Dose-matrix combination assays were performed as described above, but performed in opague 384-well plates (2k viable cells/well). Compounds were added using Tecan D300e liquid. Protein solutions were supplemented with 0.3% Tween-20 (final) and diluted to 1 μM. All wells were normalized to the maximum amount of DMSO (maximum 0.4%) or Tween-20 added. Read out of luminescence was performed on Envision 2104 Multilabel Reader (Perkin Elmer) and data were evaluated using Genedata Screener® version 14.0.6-Standard (Genedata AG). Luminescence values were normalized to luminescence of non-treated cells and dose-response was fitted using Smart Fit. Synergy scores were calculated using LOEWE synergy model.
as §2

[6] = system: NCI-N87 cells; experiment: as above; type: cell-based
Procedure: as §6, §2

[7] = Xenograft experiment, tolerability (body weight); parameters: species or system H2d Rag2 mice; conditions: mouse, in vivo
Procedure: The tolerability of the anti-cancer treatment was assessed considering the overall condition of the animal as well as body-weight changes of the mice (FIG. 22).

[8] = system: HCC-1954 cells; experiment: MNED curve-shift assay; type: cell-based; conditions: for MNED (maximum non-efficacious dose): HCC-1954
Excerpt: Therefore a curve-shift assay system was established. In a first step, a dose-response curve (DRC) is obtained by treating a certain cell line with an inhibitor. The maximum non-efficacious dose (MNED) can be derived from this DRC. MNED is the highest dose, that can be added to a certain cell line without affecting the viability. The activity of the ADC is confirmed in a separate experiment. Finally, a combination experiment can be conducted. Therefore, the ADC and ADC plus inhibitor at MNED are added to the cells. The inhibitor is tested in parallel at MNED as a control. Due to the application of inhibitor at MNED, no reduction in cell viability caused by the inhibitor is expected. Three outcomes are possible: 1) The combination of ADC plus inhibitor is equipotent as the ADC only. […] Such a result would be interpreted as depotentiation. […] In this case, the potency of the ADC is potentiated.
Potentiation effects are expressed as dose-reduction indices (DRI), which can be calculated by dividing the IC50-value of ADC by the IC50-value of ADC plus inhibitor according to eq. 1
Curve-shift assays were conducted as follows: The cell number and viability was determined using ViCell™-XR (Beckman Coulter) and seeded in opague 96-well plate (10k viable cells/well). After seeding, the plate was incubated (37° C., 5% C02) in a humid chamber overnight. Compounds were diluted in the appropriate medium, added to the cells and the plate was incubated (37° C., 5% CO2, 6 d) in a humid chamber. After 30 min equilibration at room temperature, CellTiter-Glo reagent (Promega) was added. After the plate was shaken (3 min, 550 rpm, rt) it was incubated (10 min, rt) and luminescence was read on a synergy 4 plate reader (BioTek). Evaluation was performed using GraphPad Prism version 6.05. Therefor luminescence values were normalized to luminescence values of non-treated cells and dose-response was fitted with 4-point logistic fit.
The determination of dose-reduction indices (DRI) in a maximum non-efficacious dose (MNED) curve-shift assay is a 3-step process as depicted exemplarily in FIG. 13. The cytotoxicity of the ADC is confirmed in a cell viability assay in an initial step. […] In the second step. the MNED of the ATRi was determined. […] In order to obtain a full […] for the combination, the starting concentration of the ADC was lowered compared to the experiment in step 1.

[9] = combination with DUBA, HCC-1954, 6 d, S ± SD, cutoff ±1
[10] = combination with ADC αHER2-2, HCC-1954
[11] = ATRi alone, mean ± SD, read-out: Cytotoxicity IC50
[12] = combination with DUBA, cell line not given (screen on HCC-1954 or MDA-MB-468)
[13] = combination with AZD6738, HCC-1954, 6 d

SMILES: Nc1nc(NC2CC2)cc(-c2cccc(Cl)c2Cl)n1 [TH588]
- Synergy score S [1]: −0.4+0.3
- Synergy score S [2, 9]: −0.2±0.3

SMILES: N#C/C(C(=O)c1ccc(Cl)cc1Cl)=C1/NC(=O)c2ccc(Cl)cc2N1 [Ciliobrevin D]
- Synergy score S [1]: 0.2±0.5
- Synergy score S [2, 9]: 1.2+0.6

SMILES: C=CCn1c(=O)c2cnc(Nc3ccc(N4CCN(C)CC4)cc3)nc2n1-c1cccc(C(C)(C)O)n1 [AZD1775]
- Synergy score S [1]: 0.1±0.4
- Synergy score S [2, 9]: 0.8±0.1

SMILES: C[C@@H]1COCCN1c1cc(C2(S(C)(=O)=O)CC2)c2ccnc(-c3ccn[nH]3)c2n1 [BAY286]
- Synergy score S [2, 10]: 10.4±0.2
- Synergy score S [2, 9]: 9.5±0.8
- IC50 [3, 11]: 80 ± 20 nM

SMILES: C[C@@H]1COCCN1c1cc(-c2ccnn2C)c2ccnc(-c3ccn[nH]3)c2n1 [ATRi 1]
- tumor response (tumor volume) [4]: transient tumor stasis was induced until day 8
- Synergy score S [2]: 12.5±1.7 and 12.0±0.6
- Synergy score S [5]: 13.3±0.3 and 11.4 ± 1.4
- Synergy score S [6]: 7.1±0.8 and 6.1±0.4
- tolerability (conclusion) [7]: well tolerated
- MNED (maximum non-efficacious dose) [8]: 40 nM
- effect on cell viability at MNED ([8]; HCC-1954, at 40 nM, inhibitor alone (quality control)): did not reduce cell viability

SMILES: O=c1cc(N2CCOCC2)oc2c(-c3cccc4c3sc3ccccc34)cccc12 [NU7441]
- Synergy score S [2, 12]: did not yield a synergy score exceeding the cutoff

SMILES: COc1cc2cc(c1Cl)N(C)C(=O)C[C@H](OC(=O)[C@H](C)N(C)C(=O)CCS)[C@]1(C)O[C@H]1[C@H](C)[C@@H]1C[C@@](O)(NC(=O)O1)[C@H](OC)/C=C/C=C(\C)C2 [DM1]
- Synergy score S [2]: 2.8 ± 0.5

SMILES: COc1cc2cc(C(=O)N3C[C@@H](CCl)c4c3cc(O)c3ccccc43)[nH]c2c(OC)c1OC [compound 24]
- Synergy score S [2, 13]: 6.1 ± 1.2
- Synergy score S ([2]; combination with AZD6738, HCC-1954, 6 d, listed as CBI-TMI (24)): 6.1±1.2
- IC50 ([3]; duocarmycin variant alone, mean ± SD or mean (individual values), read-out: IC50): 24 ± 32 nM

SMILES: NC(=O)Nc1cc(-c2cccc(F)c2)sc1C(=O)N[C@H]1CCCNC1 [AZD7762]
- Synergy score S [1]: 2.6+0.2
- Synergy score S [2, 9]: 3.6±0.4

SMILES: O=C(c1cc(Cc2n[nH]c(=O)c3ccccc23)ccc1F)N1CCN(C(=O)C2CC2)CC1 [Olaparib]
- Synergy score S [1]: 1.1+0.1
- Synergy score S [2, 9]: 0.6+0.4

SMILES: CCN(CC)CCNc1ccc(CO)c2sc3ccccc3c(=O)c12 [Hycanthone]
- Synergy score S [2, 12]: 0.1

SMILES: Cc1c(N)nc([C@H](CC(N)=O)NC[C@H](N)C(N)=O)nc1C(=O)N[C@H](C(=O)N[C@H](C)[C@@H](O)[C@H](C)C(=O)NC(C(=O)NCCc1nc(-c2nc(C(=O)NCCCNCCCCN)cs2)cs1)[C@@H](C)O)[C@@H](O[C@@H]1O[C@@H](CO)[C@@H](O)[C@H](O)[C@@H]1O[C@H]1O[C@H](CO)[C@@H](O)[C@H](OC(N)=O)[C@@H]1O)c1cnc[nH]1 (some centres unmarked) [Bleomycin A5]
- Synergy score S [1]: 0.4+1.0
- Synergy score S [2, 9]: 1.6±1.0

SMILES: C=CCNC1=C2C[C@@H](C)C[C@H](OC)[C@H](O)[C@@H](C)/C=C(\C)[C@H](OC(N)=O)[C@@H](OC)/C=C\C=C(/C)C(=O)NC(=CC1=O)C2=O [Tanespimycin]
- Synergy score S [2]: 1.4±0.4

SMILES: CC[C@H](C)[C@@H]([C@@H](CC(=O)N1CCC[C@H]1[C@H](OC)[C@@H](C)C(=O)N[C@H](C)[C@@H](O)c1ccccc1)OC)N(C)C(=O)[C@@H](NC(=O)[C@@H](NC)C(C)C)C(C)C [MMAE] (H-[NMeV]V[Dil][Dolaproine]-X1)
- Synergy score S [2, 13]: 2.2+0.1

SMILES: O=c1cc(-c2cccc3c2Sc2ccccc2S3)oc(N2CCOCC2)c1 [KU-55933]
- Synergy score S [2, 9]: 2.1±1.2

SMILES: Nc1nc(OCc2cc(Br)cs2)c2[nH]cnc2n1 [Lomeguatrib]
- Synergy score S [1]: 2.8±2.3
- Synergy score S [2, 9]: 0.1±0.3

SMILES: Cc1cnc(NC(=O)Nc2cc(Br)c(C)cc2OC[C@@H]2CNCCO2)cn1 [LY2603618]
- Synergy score S [1]: 4.4+1.7
- Synergy score S [2, 9]: 4.1+0.3

SMILES: Cc1nc(S(C)(=O)=O)ccc1-c1cc(N2CCOC[C@H]2C)nc2c(-c3ccn[nH]3)nccc12 [BAY73]
- Synergy score S [2, 10]: 14.4±1.1
- Synergy score S [2, 9]: 12.4±0.8
- IC50 [3, 11]: 120 ± 30 nM
- MNED (maximum non-efficacious dose) [8]: 14 nM

SMILES: S=C(NCc1ccc2c(c1)OCO2)N1CCN(c2ncnc3c2oc2ccccc23)CC1 [Amuvatinib]
- Synergy score S [2, 12]: did not yield a synergy score exceeding the cutoff

SMILES: C[C@@H]1COCCN1c1cc(C2(S(C)(=O)=O)CC2)nc(-c2cccc3[nH]ccc23)n1 [AZ20]
- Synergy score S [2, 10]: 5.8±0.4
- Synergy score S [2, 9]: 5.1±0.5

SMILES: Nc1ccn([C@@H]2O[C@H](CO)[C@@H](O)C2(F)F)c(=O)n1 [Gemcitabine]
- Synergy score S [2, 13]: 6.9±0.3
- Synergy score S ([5]; combination with AZD6738, MDA-MB-453): 1.6±1.2
- Synergy score S ([6]; combination with AZD6738, NCI-N87): 1.1±0.5

SMILES: COCC(=O)NC/C=C/c1ccc2ncnc(Nc3ccc(Oc4ccc(C)nc4)c(C)c3)c2c1 [CP724714]
- Synergy score S [1]: additive effects
- Synergy score S [2, 9]: additive effects
